{"source": "patent US10851098B2", "about": "“Azole amides and amines as alpha v integrin inhibitors” (BRISTOL-MYERS SQUIBB COMPANY, priority 2016, dated 2020)", "note": "pIC50: −log10 of the molar value.", "data": [{"molecular_target": "T1, human αVβ6 (Homo sapiens, UniProt P06756+P18564)", "T1 construct": "purchased R & D systems 3817-AV", "T1 sequence (P06756 31-992 limits assumed)": "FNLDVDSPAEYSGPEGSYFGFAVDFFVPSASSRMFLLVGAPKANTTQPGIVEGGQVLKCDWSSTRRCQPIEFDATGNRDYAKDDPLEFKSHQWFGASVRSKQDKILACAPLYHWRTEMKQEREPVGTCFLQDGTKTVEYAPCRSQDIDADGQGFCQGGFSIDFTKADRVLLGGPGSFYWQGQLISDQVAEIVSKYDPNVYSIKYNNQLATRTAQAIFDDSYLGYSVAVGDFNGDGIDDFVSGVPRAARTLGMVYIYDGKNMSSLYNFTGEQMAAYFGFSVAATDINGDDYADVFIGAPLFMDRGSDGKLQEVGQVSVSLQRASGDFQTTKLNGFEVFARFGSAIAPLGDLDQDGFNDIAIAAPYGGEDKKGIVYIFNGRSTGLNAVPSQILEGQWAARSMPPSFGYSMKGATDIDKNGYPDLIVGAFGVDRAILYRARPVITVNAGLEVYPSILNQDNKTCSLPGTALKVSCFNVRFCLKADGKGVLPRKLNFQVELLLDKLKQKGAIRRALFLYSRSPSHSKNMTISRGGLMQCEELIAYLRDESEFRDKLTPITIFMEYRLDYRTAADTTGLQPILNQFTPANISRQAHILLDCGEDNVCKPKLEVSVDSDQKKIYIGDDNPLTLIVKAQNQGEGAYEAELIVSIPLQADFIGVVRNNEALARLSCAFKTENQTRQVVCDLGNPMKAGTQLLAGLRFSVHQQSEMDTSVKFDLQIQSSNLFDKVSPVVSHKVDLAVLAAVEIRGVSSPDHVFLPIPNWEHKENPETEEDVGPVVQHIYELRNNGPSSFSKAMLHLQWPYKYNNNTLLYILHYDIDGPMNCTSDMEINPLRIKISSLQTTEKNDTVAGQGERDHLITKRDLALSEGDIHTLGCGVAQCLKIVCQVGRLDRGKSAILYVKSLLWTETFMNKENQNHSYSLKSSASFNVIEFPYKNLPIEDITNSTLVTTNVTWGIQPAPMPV", "T1 sequence (P18564 22-707 limits assumed)": "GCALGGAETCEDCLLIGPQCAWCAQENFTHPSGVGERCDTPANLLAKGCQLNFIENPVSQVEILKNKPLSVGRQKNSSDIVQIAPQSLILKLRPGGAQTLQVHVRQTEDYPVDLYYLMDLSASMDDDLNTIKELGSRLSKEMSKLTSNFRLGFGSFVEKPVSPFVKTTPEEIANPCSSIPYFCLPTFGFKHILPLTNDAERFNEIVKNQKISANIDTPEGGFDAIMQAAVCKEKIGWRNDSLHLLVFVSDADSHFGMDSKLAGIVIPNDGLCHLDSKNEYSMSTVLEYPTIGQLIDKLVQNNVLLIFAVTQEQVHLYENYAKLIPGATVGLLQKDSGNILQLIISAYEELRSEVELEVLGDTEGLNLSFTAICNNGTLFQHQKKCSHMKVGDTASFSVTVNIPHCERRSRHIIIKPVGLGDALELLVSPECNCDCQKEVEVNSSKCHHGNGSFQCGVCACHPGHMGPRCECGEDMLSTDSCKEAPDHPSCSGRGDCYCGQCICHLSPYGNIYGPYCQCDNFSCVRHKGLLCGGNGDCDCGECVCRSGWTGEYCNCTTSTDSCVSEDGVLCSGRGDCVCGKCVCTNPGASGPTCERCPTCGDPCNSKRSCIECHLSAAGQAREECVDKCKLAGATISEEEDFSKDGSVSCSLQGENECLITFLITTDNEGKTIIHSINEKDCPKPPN", "experiment": "human αVβ6 HTRF binding assay", "procedure": "All binding assays used the HTRF (homogeneous time resolved fluorescence) technology from Cisbio International, therefore all assays are described as HTRF binding assays. The assay results for the Examples are listed above together with the characterization data. The HTRF binding assays are established for the following integrins: human αVβ6, human αVβ1, human αVβ3, human αVβ5, and human αVβ8. All assays used the following assay buffer: 20 mM Tris, pH 7.4, 1 mM MgCl2, 1 mM MnCl2, 0.01% Tween 20, and 0.01% BSA. Alternatively, a SPA-based assay was used for evaluation of receptor binding.\n[…]", "values": [{"smiles": "O=C(N[C@@H](CNC(=O)c1cnn(CCc2ccc3c(n2)NCCC3)c1)C(=O)O)OCC(F)(F)F", "note": "[Example 153]", "pIC50": 8.80}, {"smiles": "CC(C)(C)OCc1c(C(=O)NC(CC(=O)O)c2cccc(Oc3cc(Cl)cc(Cl)c3)c2)cnn1CCc1ccc2c(n1)NCCC2", "note": "(stereo not drawn) [Example 51]", "pIC50": 7.55}, {"smiles": "O=C(O)C[C@H](NC(=O)c1cnn(CCCNc2ccccn2)c1)c1cc(Cl)cc(Cl)c1", "note": "[Example 7, (S)-3-(3,5-Dichlorophenyl)-3-(1-(3-(pyridin-2-ylamino)propyl)-1H-pyrazole-4-carboxamido)propanoic acid]", "pIC50": 7.20}, {"smiles": "Cc1cc(C)c(S(=O)(=O)N[C@@H](CNC(=O)c2cnn(Cc3cc4c(nc3C)NCCC4)n2)C(=O)O)c(C)c1", "note": "[Example 118]", "pIC50": 6.65}, {"smiles": "O=C(O)CC(NC(=O)c1cnn(CCc2ccc3c(n2)NCCC3)c1CO)c1ccc(Cl)c(Cl)c1", "note": "(stereo not drawn) [Example 58]", "pIC50": 7.40}, {"smiles": "COc1ccc([C@H](CC(=O)O)NC(=O)c2cnn(CCc3ccc4c(n3)NCCC4)c2)cc1F", "note": "[Example 39]", "pIC50": 7.82}, {"smiles": "O=C(NC[C@H](NS(=O)(=O)Cc1ccc(OC(F)(F)F)cc1)C(=O)O)c1cnn(CCc2ccc3c(n2)NCCC3)c1", "note": "[Example 146]", "pIC50": 8.07}, {"smiles": "Cc1ccc(Oc2cccc(C(CC(=O)O)NC(=O)c3cnn(CCc4ccc5c(n4)NCCC5)c3CO)c2)cc1", "note": "(stereo not drawn) [Example 27]", "pIC50": 8.29}, {"smiles": "O=C(NCC(C(=O)O)c1ccccc1)c1cnn(CCc2ccc3c(n2)NCCC3)c1", "note": "(stereo not drawn) [Example 85]", "pIC50": 6.49}, {"smiles": "O=C(NC[C@H](NS(=O)(=O)Cc1cc(Cl)cc(Cl)c1)C(=O)O)c1cnn(CCc2ccc3c(n2)NCCC3)c1", "note": "[Example 140]", "pIC50": 8.21}, {"smiles": "O=C(O)C[C@H](NC(=O)c1cnn(CCc2ccc3c(n2)NCCC3)n1)c1cc(Cl)cc(Cl)c1", "note": "[Example 13, (S)-3-(3,5-Dichlorophenyl)-3-(2-(2-(5,6,7,8-tetrahydro-1,8-naphthyridin-2-yl)ethyl)-2H-1,2,3-triazole-4-carboxamido)propanoic acid]", "pIC50": 8.15}, {"smiles": "O=C(O)CC(NC(=O)c1cn(CCc2ccc3c(n2)NCCC3)nc1CO)c1cc(Cl)cc(Cl)c1", "note": "(stereo not drawn) [Example 4, 3-(3,5-Dichlorophenyl)-3-(3-(hydroxymethyl)-1-(2-(5,6,7,8-tetrahydro-1,8-naphthyridin-2-yl)ethyl)-1H-pyrazole-4-carboxamido)propanoic acid]", "pIC50": 6.85}, {"smiles": "CCOC(=O)N[C@@H](CNC(=O)c1cnn(CCc2ccc3c(n2)NCCC3)c1)C(=O)O", "note": "[Example 132]", "pIC50": 8.64}, {"smiles": "Cc1cc(C)c(S(=O)(=O)N[C@@H](CNC(=O)c2cnn(CCCNC3=NCC(O)CN3)c2)C(=O)O)c(C)c1", "note": "(stereo partly drawn) [Example 172]", "pIC50": 8.35}, {"smiles": "CC(C)(C)OCc1nn(CCCc2ccc3c(n2)NCCC3)cc1C(=O)NC(CC(=O)O)c1cc(Cl)cc(Cl)c1", "note": "(stereo not drawn) [Example 5, 3-(3-(tert-Butoxymethyl)-1-(3-(5,6,7,8-tetrahydro-1,8-naphthyridin-2-yl)propyl)-1H-pyrazole-4-carboxamido)-3-(3,5-dichlorophenyl)propanoic acid]", "pIC50": 6.80}, {"smiles": "O=C(O)CC(NC(=O)c1cnn(CCc2ccc3c(n2)NCCC3)c1CO)c1cccc(-n2cccc2)c1", "note": "(stereo not drawn) [Example 64]", "pIC50": 7.19}, {"smiles": "CN(C(=O)c1cnn(CCc2ccc3c(n2)NCCC3)c1)[C@H](CC(=O)O)c1cc(Cl)cc(Cl)c1", "note": "[Example 93]", "pIC50": 6.35}, {"smiles": "O=C(NC[C@H](NS(=O)(=O)CC1CCCCC1)C(=O)O)c1cnn(CCc2ccc3c(n2)NCCC3)c1", "note": "[Example 164]", "pIC50": 8.19}, {"smiles": "Cc1nn(CCc2ccc3c(n2)NCCC3)cc1C(=O)NC(CC(=O)O)c1cc(Cl)cc(Cl)c1", "note": "(stereo not drawn) [Example 70]", "pIC50": 6.95}, {"smiles": "Cc1cccc(C(CC(=O)O)NC(=O)c2cnn(CCc3ccc4c(n3)NCCC4)c2CO)c1", "note": "(stereo not drawn) [Example 55]", "pIC50": 7.49}, {"smiles": "O=C(O)CC(NC(=O)c1cnn(CCc2ccc3c(n2)NCCC3)c1CO)c1ccccc1", "note": "(stereo not drawn) [Example 72]", "pIC50": 6.91}, {"smiles": "COc1ccc([C@H](CC(=O)O)NC(=O)c2cn(CCc3ccc4c(n3)NCCC4)nc2COC(C)(C)C)cc1F", "note": "[Example 1, (S)-3-(3-(tert-Butoxymethyl)-1-(2-(5,6,7,8-tetrahydro-1,8-naphthyridin-2-yl)ethyl)-1H-pyrazole-4-carboxamido)-3-(3-fluoro-4-methoxyphenyl)propanoic acid]", "pIC50": 6.11}, {"smiles": "CC(C)CS(=O)(=O)N[C@@H](CNC(=O)c1cnn(CCc2ccc3c(n2)NCCC3)c1)C(=O)O", "note": "[Example 145]", "pIC50": 8.41}, {"smiles": "Cc1nc2c(cc1CCn1ncc(C(=O)NC(CC(=O)O)c3cc(Cl)cc(Cl)c3)c1CO)CCCN2", "note": "(stereo not drawn) [Example 107]", "pIC50": 5.30}, {"smiles": "CCCCCS(=O)(=O)N[C@@H](CNC(=O)c1cnn(CCc2ccc3c(n2)NCCC3)c1)C(=O)O", "note": "[Example 144]", "pIC50": 8.68}, {"smiles": "CCOCCS(=O)(=O)N[C@@H](CNC(=O)c1cnn(CCc2ccc3c(n2)NCCC3)c1)C(=O)O", "note": "[Example 148]", "pIC50": 8.05}, {"smiles": "CCOC(=O)[C@H](CNC(=O)c1cn(CCc2ccc3c(n2)NCCC3)cn1)NS(=O)(=O)c1c(C)cc(C)cc1C", "note": "[Example 117]", "pIC50": 6.89}, {"smiles": "CCCCCOC(=O)N[C@@H](CNC(=O)c1cnn(CCc2ccc3c(n2)NCCC3)c1)C(=O)O", "note": "[Example 134]", "pIC50": 9.10}, {"smiles": "O=C(O)CC(NC(=O)c1cn(CCc2ccc3c(n2)NCCC3)nc1-c1ccccc1)c1ccc(Cl)c(Cl)c1", "note": "(stereo not drawn) [Example 78]", "pIC50": 6.86}, {"smiles": "CC(C)CC(CC(=O)O)NC(=O)c1cnn(CCc2ccc3c(n2)NCCC3)c1", "note": "(stereo not drawn) [Example 89]", "pIC50": 6.40}, {"smiles": "COc1ccc(C(CC(=O)O)NC(=O)c2cnn(CCc3ccc4c(n3)NCCC4)c2CO)cc1OC", "note": "(stereo not drawn) [Example 76]", "pIC50": 6.88}, {"smiles": "COc1ccc([C@H](CC(=O)O)NC(=O)c2cnn(CCc3ccc4c(n3)NCCC4)c2CO)cn1", "note": "[Example 43]", "pIC50": 7.80}, {"smiles": "CC(C)(C)c1cc(Br)cc([C@H](CC(=O)O)NC(=O)c2cnn(Cc3ccc4c(n3)NCCC4)c2)c1", "note": "[Example 98]", "pIC50": 5.85}, {"smiles": "Cc1ccc(CS(=O)(=O)N[C@@H](CNC(=O)c2cnn(CCc3ccc4c(n3)NCCC4)c2)C(=O)O)cc1", "note": "[Example 161]", "pIC50": 7.82}, {"smiles": "CC(C)(C)COC(=O)N[C@@H](CNC(=O)c1cnn(CCc2ccc3c(n2)NCCC3)c1)C(=O)O", "note": "[Example 137]", "pIC50": 9.10}, {"smiles": "CN(C(=O)c1cnn(CCCc2ccc3c(n2)NCCC3)c1)[C@@H](CC(=O)O)c1cc(Cl)cc(Cl)c1", "note": "[Example 45]", "pIC50": 7.74}, {"smiles": "O=C(O)CC(NC(=O)c1cnn(CCCc2ccc3c(n2)NCCC3)c1CO)c1cc(Cl)cc(Cl)c1", "note": "(stereo not drawn) [Example 68]", "pIC50": 7.01}, {"smiles": "O=C(NC[C@@H](NC(=O)[C@@H]1CCCN1S(=O)(=O)c1ccccc1)C(=O)O)c1cnn(CCc2ccc3c(n2)NCCC3)c1", "note": "[Example 21]", "pIC50": 8.85}, {"smiles": "CCCCC(CC)COC(=O)N[C@@H](CNC(=O)c1cnn(CCc2ccc3c(n2)NCCC3)c1)C(=O)O", "note": "(stereo partly drawn) [Example 152]", "pIC50": 9.40}, {"smiles": "O=C(O)CC(NC(=O)c1cnn(CCc2ccc3c(n2)NCCC3)c1CO)c1cccc(Oc2cc(Cl)cc(Cl)c2)c1", "note": "(stereo not drawn) [Example 38]", "pIC50": 7.89}, {"smiles": "O=C(NC[C@H](NS(=O)(=O)Cc1ccccc1)C(=O)O)c1cnn(CCc2ccc3c(n2)NCCC3)c1", "note": "[Example 125]", "pIC50": 7.85}, {"smiles": "O=C(O)CC(Cc1ccccc1)NC(=O)c1cnn(CCc2ccc3c(n2)NCCC3)c1", "note": "(stereo not drawn) [Example 99]", "pIC50": 5.85}, {"smiles": "Cc1nn(CCc2ccc3c(n2)NCCC3)c(C)c1C(=O)NC(CC(=O)O)c1ccc(Cl)c(Cl)c1", "note": "(stereo not drawn) [Example 57]", "pIC50": 7.40}, {"smiles": "N#Cc1cccc(C(CC(=O)O)NC(=O)c2cnn(CCc3ccc4c(n3)NCCC4)c2CO)c1", "note": "(stereo not drawn) [Example 53]", "pIC50": 7.52}, {"smiles": "O=C(O)CC(NC(=O)c1cn(CCc2ccc3c(n2)NCCC3)nc1-c1ccccc1)c1cc(Cl)cc(Cl)c1", "note": "(stereo not drawn) [Example 82]", "pIC50": 6.61}]}]}
